Calls of active or inactive are those of the source.
What was measured:
cells [1] = type: functional, cell-based
[2] = biological target: T1, Trace amine-associated receptor 1 (Homo sapiens, UniProt Q96RJ0); test: Fluorescence-based cell-based high throughput dose response assay to identify agonists of the human trace amine associated receptor 1 (TAAR1).; type: functional
[3] = biological target: T1, Trace amine-associated receptor 1; test: Counterscreen for agonists of the human trace amine associated receptor 1 (hTAAR1): Fluorescence-based cell-based high throughput dose response assay to identify hTAAR1 agonist that also desensitize TAAR1 receptor response.; type: functional
cells [4] = type: functional, cell-based; remark: listed apart in the source
[5] = biological target: Luciferin 4-monooxygenase (Photinus pyralis, UniProt P08659); test: inhibition of purified Photinus pyralis luciferase – biochemical, luminescence, dose response (AID 1891)
[6] = Luminescence Cell-Based Dose Confirmation HTS to Identify Inhibitors of Platelet Dense Granule Release. [Related pubchem assays: 1663 (Primary HTS), 1678 (Summary of Project)]; type: functional
Beta-galactosidase = Beta-galactosidase (Escherichia coli, UniProt Q8VNN2); test: Dose response counterscreen for EBI2 assay utilizing the enzyme, b-galactosidase.; type: functional
[7] = biological target: T2, Oxysterols receptor LXR-beta (Homo sapiens, UniProt P55055); type: functional, cell-based;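 note: Cell-based luminescence dose-response assay of agonist activity at LXR, run as a confirmatory counterscreen to a daf-12 agonist screen; HEK293 cells with Gal4-LXR fusion and GAL4-driven luciferase reporter; agonist potency from rising luciferase signal of a Gal4-LXR reporter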
T2 sequence (P55055 whole entry): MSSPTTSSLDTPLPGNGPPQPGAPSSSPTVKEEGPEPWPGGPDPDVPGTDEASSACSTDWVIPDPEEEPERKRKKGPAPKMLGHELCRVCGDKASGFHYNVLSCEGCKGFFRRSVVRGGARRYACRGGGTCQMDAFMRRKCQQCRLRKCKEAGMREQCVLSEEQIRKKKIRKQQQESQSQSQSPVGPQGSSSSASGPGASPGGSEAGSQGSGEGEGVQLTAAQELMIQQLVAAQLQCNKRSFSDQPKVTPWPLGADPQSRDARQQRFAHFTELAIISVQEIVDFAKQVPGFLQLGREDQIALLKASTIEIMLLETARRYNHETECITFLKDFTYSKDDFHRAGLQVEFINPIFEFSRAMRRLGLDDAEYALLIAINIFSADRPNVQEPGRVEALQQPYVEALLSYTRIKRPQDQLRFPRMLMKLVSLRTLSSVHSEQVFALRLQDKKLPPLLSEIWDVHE

cells [8] = test: cells
[9] = biological target: Fructose-bisphosphate aldolase (Mycobacterium tuberculosis, UniProt P9WQA3); test: Fluorescence-based biochemical high throughput dose response assay for inhibitors of the fructose-bisphosphate aldolase (FBA) of M. tuberculosis.; type: functional
[10] = HGIII-sPLA2 enzyme inhibition potency – biochemical, QFRET, IC50, dose response (AID 743457);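 note: green fluorescence rise as the enzyme cleaves BODIPY PC-A2 in liposomes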
[11] = tested on: Streptococcus sp. 'group A'; test: Streptococcus pyogenes SK(-)GAS viability under kanamycin – luminescence, BacTiterGlo, confirmation, counter-screen for streptokinase expression inhibitor project, dose response (AID 1900); type: functional, organism-based
Streptokinase A = biological target: T3, Streptokinase A (Streptococcus pyogenes serotype M1, UniProt P10520); test: viability-normalized secreted streptokinase activity reduction – plasminogen activation absorbance, OD405, dose response (AID 1914); type: functional, Streptococcus pyogenes M1 GAS;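 note: secreted streptokinase activity via plasminogen activation per viability signal from cell pellet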
T3 sequence (P10520 whole entry): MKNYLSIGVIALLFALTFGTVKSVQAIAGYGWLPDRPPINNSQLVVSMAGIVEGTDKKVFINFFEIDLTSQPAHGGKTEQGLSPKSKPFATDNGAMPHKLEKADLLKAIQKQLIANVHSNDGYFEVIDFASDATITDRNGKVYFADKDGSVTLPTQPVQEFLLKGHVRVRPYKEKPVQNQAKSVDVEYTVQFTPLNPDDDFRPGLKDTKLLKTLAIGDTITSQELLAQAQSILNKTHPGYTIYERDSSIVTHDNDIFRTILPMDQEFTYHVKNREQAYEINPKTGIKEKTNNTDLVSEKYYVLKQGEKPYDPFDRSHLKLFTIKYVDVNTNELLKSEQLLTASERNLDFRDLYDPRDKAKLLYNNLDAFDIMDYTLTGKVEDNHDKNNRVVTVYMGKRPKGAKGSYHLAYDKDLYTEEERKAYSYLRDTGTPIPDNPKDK

Streptococcus = test: GAS UMAA2166 growth inhibition – luminescence, BacTiterGlo, counter-screen for streptokinase expression inhibitor project, dose response (AID 1915); type: functional, organism-based;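 note: potency for reduction of bacterial viability or growth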
Mu-type opioid receptor = Mu-type opioid receptor (Homo sapiens, UniProt P35372); type: functional, cell-based;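 note: U2OS cells with beta-arrestin recruitment to OPRM1 by beta-gal complementation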
[12] = biological target: 5-hydroxytryptamine receptor 2A (Mus musculus, UniProt P35363); type: functional, cell-based;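 note: CHO-K1 cells with tagged receptor and beta-arrestin; agonist potency measured as compound-induced activation of the receptor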
[13] = Late stage assay provider results from the probe development effort to identify selective inhibitors of heat shock protein 90 (HSP90): Absorbance-based cell proliferation assay in SKBR3 cells.; type: functional; conditions: SK-BR-3
[14] = Luminescence Cell-Based Dose Confirmation HTS to Identify Activators of 5'UTR Stem-Loop Driven Alpha-Synuclein mRNA Translation in H4 Neuroglioblastoma Cells. [Related pubchem assays: 1829 (Project Summary), 1814 (Primary HTS)]; type: functional
[15] = Luminescence Cell-Based Dose Response HTS to Identify Activators of Luciferase Translation or Activity in H4 […] Cells. [Related pubchem assays: 1829 (Project Summary), 1814 (Primary HTS)]; type: functional
H4 = test: Luminescence Cell-Based Dose Response HTS to Identify Activators of 5'UTR Stem-Loop Driven Prion Protein mRNA Translation in H4 Neuroglioblastoma Cells. [Related pubchem assays: 1829 (Project Summary), 1814 (Primary HTS)]; type: functional; conditions: Homo sapiens
[16] = biological target: T4, Calpain-2 catalytic subunit (Sus scrofa, UniProt P43367); test: m-calpain protease blockers, concentration series – biochemical, fluorogenic peptide substrate, dose response (AID 1420); type: functional
T4 sequence (P43367 whole entry): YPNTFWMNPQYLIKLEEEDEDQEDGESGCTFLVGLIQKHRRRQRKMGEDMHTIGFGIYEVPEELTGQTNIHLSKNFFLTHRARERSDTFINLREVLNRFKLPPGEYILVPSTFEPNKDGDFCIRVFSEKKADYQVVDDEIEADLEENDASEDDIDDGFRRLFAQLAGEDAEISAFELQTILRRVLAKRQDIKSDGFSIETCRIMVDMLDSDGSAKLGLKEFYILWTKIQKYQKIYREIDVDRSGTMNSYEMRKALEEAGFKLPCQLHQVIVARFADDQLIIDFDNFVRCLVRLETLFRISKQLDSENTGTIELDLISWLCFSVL

[17] = blockers of HIV-1 envelope-mediated cell-cell fusion – cherry-pick, dose response (AID 652057); type: functional, cell-based
[18] = HIV-1 AD8 envelope cell-cell fusion blockers – cherry-pick, dose response (AID 652062); type: functional, cell-based;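 note: luciferase signal from cell-cell fusion driven by HIV-1 clade B AD8 Env; potency is for inhibitors of fusion seen as a drop in luminescence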
[19] = biological target: 1-phosphatidylinositol 4,5-bisphosphate phosphodiesterase gamma-1 (Homo sapiens, UniProt P19174); test: Counterscreen for inhibitors of phospholipase C isozymes (PLC-B3): Fluorescence-based biochemical high throughput dose response assay to identify inhibitors of phospholipase C isozymes (PLC-gamma1).
[20] = biological target: 1-phosphatidylinositol 4,5-bisphosphate phosphodiesterase beta-3 (Homo sapiens, UniProt Q01970); test: Fluorescence-based biochemical high throughput dose response assay to identify inhibitors of phospholipase C isozymes (PLC-B3).
[21] = biological target: COUP transcription factor 2 (Homo sapiens, UniProt P24468); test: Luminescence-based cell-based high throughput dose response assay to identify inhibitors of COUP-TFII (NR2F2).; type: functional;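 note: HEK293 cells transiently cotransfected with COUP-TFII expression vector and reporter; luciferase reporter luminescence driven by COUP-TFII from the pX2-168 reporter plasmid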
Chain of COUP transcription factor 2 (P24468 whole entry): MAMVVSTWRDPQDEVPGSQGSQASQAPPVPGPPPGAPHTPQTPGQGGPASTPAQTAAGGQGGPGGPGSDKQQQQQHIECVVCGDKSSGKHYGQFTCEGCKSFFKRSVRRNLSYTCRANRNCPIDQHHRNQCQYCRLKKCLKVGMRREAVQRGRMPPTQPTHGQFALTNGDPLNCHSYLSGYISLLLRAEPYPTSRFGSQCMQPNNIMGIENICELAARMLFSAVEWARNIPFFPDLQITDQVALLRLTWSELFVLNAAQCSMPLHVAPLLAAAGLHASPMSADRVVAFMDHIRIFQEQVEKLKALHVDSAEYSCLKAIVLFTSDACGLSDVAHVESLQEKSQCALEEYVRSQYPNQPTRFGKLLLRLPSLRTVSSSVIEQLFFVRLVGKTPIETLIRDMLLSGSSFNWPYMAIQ

T1 sequence (Q96RJ0 whole entry): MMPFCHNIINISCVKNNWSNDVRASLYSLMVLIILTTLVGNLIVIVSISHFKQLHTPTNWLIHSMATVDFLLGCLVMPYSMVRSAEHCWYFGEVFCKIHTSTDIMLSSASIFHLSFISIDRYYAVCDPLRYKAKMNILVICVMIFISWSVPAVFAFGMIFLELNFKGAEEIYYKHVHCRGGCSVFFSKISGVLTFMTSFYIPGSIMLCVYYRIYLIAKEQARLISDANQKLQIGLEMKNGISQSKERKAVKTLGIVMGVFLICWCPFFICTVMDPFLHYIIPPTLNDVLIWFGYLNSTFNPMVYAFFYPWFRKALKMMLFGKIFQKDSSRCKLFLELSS
Chain of 1-phosphatidylinositol 4,5-bisphosphate phosphodiesterase gamma-1 (P19174 whole entry): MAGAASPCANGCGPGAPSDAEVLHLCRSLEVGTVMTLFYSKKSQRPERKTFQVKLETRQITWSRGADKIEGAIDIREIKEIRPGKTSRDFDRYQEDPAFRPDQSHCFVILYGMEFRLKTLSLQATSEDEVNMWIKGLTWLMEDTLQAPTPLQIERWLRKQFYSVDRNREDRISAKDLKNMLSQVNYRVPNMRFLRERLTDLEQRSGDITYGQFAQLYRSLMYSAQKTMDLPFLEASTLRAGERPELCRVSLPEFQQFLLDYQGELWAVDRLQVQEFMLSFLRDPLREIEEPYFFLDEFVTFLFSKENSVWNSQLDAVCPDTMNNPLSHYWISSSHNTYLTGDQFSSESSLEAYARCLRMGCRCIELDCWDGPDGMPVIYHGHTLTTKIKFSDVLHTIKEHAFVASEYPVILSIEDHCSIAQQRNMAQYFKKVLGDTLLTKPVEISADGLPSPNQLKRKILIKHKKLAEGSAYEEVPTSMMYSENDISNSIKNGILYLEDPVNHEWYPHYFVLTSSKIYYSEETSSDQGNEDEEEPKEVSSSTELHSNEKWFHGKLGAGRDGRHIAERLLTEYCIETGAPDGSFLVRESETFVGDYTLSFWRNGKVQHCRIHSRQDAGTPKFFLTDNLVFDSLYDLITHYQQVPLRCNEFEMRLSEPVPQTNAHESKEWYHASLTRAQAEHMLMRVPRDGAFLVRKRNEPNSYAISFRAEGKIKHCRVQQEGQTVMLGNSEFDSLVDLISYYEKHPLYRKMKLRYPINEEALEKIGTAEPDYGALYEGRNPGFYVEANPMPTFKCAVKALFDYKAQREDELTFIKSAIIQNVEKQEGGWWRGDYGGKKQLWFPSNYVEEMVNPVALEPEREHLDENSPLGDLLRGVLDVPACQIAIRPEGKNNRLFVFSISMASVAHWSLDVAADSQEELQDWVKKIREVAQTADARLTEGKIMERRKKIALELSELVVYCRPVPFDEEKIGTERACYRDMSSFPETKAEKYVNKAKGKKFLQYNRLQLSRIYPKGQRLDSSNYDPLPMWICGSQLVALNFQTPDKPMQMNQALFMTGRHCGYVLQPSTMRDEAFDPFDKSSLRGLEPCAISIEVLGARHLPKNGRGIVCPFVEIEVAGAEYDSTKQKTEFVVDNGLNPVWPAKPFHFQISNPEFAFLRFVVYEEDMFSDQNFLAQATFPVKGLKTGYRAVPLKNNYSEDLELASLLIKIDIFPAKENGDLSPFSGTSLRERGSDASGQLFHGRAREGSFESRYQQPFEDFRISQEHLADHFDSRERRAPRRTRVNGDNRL
Chain of Beta-galactosidase (Q8VNN2 whole entry, the tested form may be a part): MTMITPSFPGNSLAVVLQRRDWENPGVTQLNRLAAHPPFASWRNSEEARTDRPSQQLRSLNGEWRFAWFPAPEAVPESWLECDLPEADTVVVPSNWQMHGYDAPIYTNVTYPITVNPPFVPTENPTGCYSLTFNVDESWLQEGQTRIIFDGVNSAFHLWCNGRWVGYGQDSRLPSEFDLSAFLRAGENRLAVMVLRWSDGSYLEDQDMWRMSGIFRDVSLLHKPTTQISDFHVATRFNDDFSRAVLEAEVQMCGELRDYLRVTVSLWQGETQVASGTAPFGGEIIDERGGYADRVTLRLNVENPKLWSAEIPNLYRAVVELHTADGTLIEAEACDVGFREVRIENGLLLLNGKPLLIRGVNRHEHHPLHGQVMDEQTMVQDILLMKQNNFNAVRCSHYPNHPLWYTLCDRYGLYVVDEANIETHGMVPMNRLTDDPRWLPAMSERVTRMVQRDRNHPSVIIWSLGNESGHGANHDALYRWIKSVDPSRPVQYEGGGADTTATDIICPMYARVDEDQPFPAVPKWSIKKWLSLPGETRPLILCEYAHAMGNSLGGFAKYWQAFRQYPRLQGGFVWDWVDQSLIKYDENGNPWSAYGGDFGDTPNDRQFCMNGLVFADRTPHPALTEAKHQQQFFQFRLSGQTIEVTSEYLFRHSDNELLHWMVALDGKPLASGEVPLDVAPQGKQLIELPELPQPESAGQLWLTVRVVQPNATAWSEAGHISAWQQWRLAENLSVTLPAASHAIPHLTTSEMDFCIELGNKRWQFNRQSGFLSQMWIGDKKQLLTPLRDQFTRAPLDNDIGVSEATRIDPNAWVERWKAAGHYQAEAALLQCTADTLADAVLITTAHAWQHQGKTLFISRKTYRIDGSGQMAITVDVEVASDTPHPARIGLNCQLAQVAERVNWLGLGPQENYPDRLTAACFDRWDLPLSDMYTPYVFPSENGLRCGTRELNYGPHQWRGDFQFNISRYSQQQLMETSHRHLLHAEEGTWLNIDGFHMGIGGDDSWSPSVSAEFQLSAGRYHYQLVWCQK
Chain of Fructose-bisphosphate aldolase (P9WQA3 whole entry): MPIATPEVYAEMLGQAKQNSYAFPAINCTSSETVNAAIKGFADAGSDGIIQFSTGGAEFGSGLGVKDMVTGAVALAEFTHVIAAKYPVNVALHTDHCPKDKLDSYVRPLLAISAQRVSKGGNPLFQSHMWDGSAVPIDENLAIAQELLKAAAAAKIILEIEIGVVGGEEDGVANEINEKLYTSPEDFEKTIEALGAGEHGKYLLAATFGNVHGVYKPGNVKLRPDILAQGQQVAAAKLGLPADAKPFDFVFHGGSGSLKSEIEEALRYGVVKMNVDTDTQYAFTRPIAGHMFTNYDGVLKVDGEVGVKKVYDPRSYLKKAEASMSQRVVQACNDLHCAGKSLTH
Chain of Luciferin 4-monooxygenase (P08659 whole entry): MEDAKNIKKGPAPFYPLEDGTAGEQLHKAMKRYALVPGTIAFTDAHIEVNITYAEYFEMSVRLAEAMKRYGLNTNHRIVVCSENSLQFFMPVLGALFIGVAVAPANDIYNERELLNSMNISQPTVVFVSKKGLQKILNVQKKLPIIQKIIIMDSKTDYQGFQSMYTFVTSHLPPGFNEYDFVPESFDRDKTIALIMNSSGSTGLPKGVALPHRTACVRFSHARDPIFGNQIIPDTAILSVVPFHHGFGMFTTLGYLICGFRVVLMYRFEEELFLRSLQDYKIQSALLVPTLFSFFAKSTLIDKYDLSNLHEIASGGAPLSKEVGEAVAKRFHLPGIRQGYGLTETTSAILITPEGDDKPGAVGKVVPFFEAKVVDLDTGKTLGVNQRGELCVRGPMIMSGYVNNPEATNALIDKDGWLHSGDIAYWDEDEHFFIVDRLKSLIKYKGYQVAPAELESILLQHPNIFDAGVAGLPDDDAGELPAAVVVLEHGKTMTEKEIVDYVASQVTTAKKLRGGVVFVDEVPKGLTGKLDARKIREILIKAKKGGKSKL
Chain of 5-hydroxytryptamine receptor 2A (P35363 whole entry): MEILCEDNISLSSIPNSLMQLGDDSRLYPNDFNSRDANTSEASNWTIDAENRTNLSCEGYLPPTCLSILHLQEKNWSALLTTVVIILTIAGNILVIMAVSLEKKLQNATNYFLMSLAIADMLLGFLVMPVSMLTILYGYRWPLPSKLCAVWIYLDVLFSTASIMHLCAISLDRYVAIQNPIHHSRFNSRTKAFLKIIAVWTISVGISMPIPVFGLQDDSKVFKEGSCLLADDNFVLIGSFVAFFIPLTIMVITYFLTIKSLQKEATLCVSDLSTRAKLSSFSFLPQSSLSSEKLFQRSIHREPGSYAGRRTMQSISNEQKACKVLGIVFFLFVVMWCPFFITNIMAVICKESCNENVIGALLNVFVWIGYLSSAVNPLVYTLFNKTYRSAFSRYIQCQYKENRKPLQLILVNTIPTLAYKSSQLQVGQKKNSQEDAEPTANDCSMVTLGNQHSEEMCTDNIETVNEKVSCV
Chain of Mu-type opioid receptor (P35372 whole entry): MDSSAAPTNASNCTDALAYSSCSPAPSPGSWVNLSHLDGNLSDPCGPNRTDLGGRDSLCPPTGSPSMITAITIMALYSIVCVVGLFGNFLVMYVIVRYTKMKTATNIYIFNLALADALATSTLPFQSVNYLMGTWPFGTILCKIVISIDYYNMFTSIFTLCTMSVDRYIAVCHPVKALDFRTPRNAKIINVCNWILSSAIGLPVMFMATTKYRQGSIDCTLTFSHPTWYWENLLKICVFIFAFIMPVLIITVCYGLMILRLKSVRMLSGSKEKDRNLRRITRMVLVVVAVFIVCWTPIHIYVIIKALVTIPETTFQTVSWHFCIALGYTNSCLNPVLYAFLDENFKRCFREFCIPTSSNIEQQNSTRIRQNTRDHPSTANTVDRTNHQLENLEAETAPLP

What does the source list for `CCOC(=O)C(NC(=O)CC)(N1CCc2ccccc2C1)C(F)(F)F` (stereo unspecified)?
IC50 (cells [1]): > 29.9 µM (inactive); EC50 [2]: 0.125 µM (active); IC50 [3]: 1.03 µM (active); EC50 (cells [4]): > 29.9 µM (inactive)

Which EC50 [5] does the source give for `CNC(=O)/C(C#N)=C/c1ccc(-c2nc3ccccc3s2)o1` here?
Its EC50 is > 112 µM (not active).

What about the EC50 [6] of the same molecule?
Its EC50 is > 112 µM (not active).

And the IC50 (Beta-galactosidase)?
The IC50 was > 80 µM (inactive).

Which EC50 [7] does the source give for `CCCC#Cc1ccc2c(c1)COc1c3ccccc3nn1-2` here?
Its EC50 is > 67.5 µM (inactive).

And the EC50 (cells [8])?
The EC50 was > 67.5 µM (inactive).

Which IC50 [9] does the source give for `CCCn1c(-c2cc(OC)c(OC)c(OC)c2)nc2c1c(=O)[nH]c(=O)n2Cc1ccccc1` here?
The IC50 was 1.32 µM (active).

Which IC50 [10] does the source give for `O=C(NNC(=S)Nc1ccccc1)NNC(=S)Nc1ccccc1` here?
The IC50 was > 122 µM (inactive).

Which EC50 [11] does the source give for `Nc1nc(CN2CCN(c3ccccc3)CC2)nc(N2CCCc3ccccc32)n1` here?
The EC50 was 9.04 µM (active).

What about the EC50 (Streptokinase A) of the same molecule?
Its EC50 is > 150 µM (not active).

What about the EC50 (Streptococcus) of the same molecule?
The EC50 was > 150 µM (not active).

What about the EC50 (Mu-type opioid receptor) of the same molecule?
Its EC50 is 92.5 µM (inactive).

And the EC50 [12]?
The EC50 was 0.939 µM (active).

With `COC(=O)c1ccc2nc(NC(=O)C3CCCCC3)sc2c1` as the molecule, how does the IC50 [13] read?
The IC50 was 51.6 µM (inactive).

With `O=C(Nc1nc(COc2ccccc2)cs1)C12CC3CC(CC(C3)C1)C2` as the molecule, how does the EC50 [14] read?
The EC50 was 26.8 µM (active).

And the EC50 [15]?
Its EC50 is 20.7 µM (active).

What about the EC50 (H4) of the same molecule?
The EC50 was 19 µM (active).

And the IC50 [16]?
Its IC50 is 2.03 µM (not active).

What about the AC50 [17] of the same molecule?
The AC50 was 49.8 µM (active).

And the AC50 [18]?
Its AC50 is 34.9 µM (active).

What about the IC50 [19] of the same molecule?
The IC50 was > 123 µM (inactive).

What about the IC50 [20] of the same molecule?
Its IC50 is > 123 µM (inactive).

Which IC50 [21] does the source give for `CC1(C)CC(=O)C=C(c2ccc(-c3cnc4ccccc4c3)cc2)C1=O` here?
The IC50 was 4.87 µM (active).

Reference: ChEMBL document CHEMBL1201862, “PubChem BioAssay data set” (2004)
